Here are results for five molecules from patent US20250019701A1, “TREATMENT FOR INFLAMMATORY DISEASE” (priority 2021, published 2025).

For data set [1], the system named is THP-1 cells. The data set is classed as cell-based, human.
For data set [2], the system named is A549 cells. The data set is classed as cell-based, human.
In the next data set the test system is ASC. It is filed as cell-based, human. The settings on record: THP-1; after ORF8 transfection; 30 uM Etifoxine or 200 nM PK11195 for 24 hours.
In the next data set the test system is Vero cells. The settings on record: etifoxine 30 μM, counting adherent cells.
The subject of data set [3] is A549 cells.
Data set [4] relates to THP-1 cells. The data set is classed as cell-based, human. The conditions noted are these: 48 hours ligand treatment.
For data set [5], the target named is T1, NLRP3 (NLR family pyrin domain containing 3) (human, UniProt Q96P20 1-1036).
T1 construct: Endogenous protein in the THP-1 cell lysate; also called NRLP3
Description: co-immunoprecipitation from THP-1 cells, TSPO as bait, western blot.

T1 sequence (Q96P20 whole entry, the tested form may be a part): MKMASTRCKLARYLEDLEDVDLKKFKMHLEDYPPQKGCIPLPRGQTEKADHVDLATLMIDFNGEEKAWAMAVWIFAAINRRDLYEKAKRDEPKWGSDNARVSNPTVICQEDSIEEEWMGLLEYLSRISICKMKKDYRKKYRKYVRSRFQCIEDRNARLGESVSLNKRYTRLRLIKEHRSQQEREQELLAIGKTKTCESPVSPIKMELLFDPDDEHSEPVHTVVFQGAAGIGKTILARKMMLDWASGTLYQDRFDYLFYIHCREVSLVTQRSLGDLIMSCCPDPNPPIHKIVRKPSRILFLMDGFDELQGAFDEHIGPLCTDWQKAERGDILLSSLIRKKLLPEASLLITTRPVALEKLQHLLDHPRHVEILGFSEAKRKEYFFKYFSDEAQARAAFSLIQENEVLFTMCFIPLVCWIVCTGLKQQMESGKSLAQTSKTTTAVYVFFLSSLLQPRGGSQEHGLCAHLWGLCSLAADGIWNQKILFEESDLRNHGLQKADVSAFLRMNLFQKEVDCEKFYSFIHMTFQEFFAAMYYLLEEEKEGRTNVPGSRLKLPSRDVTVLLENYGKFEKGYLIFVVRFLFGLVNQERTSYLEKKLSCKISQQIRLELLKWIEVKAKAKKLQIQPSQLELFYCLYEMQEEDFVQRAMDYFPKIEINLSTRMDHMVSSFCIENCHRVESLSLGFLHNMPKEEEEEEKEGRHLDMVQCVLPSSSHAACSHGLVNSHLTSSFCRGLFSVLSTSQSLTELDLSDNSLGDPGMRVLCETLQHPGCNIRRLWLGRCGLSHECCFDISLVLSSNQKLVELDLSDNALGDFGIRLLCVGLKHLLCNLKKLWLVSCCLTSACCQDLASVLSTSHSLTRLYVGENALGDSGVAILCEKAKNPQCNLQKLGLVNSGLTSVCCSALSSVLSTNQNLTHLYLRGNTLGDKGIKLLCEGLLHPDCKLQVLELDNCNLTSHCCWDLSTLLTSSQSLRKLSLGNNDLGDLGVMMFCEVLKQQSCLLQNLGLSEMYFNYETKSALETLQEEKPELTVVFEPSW

On to `CCNC1=Nc2ccc(Cl)cc2C(C)(c2ccccc2)O1` (stereo not shown) [etifoxine], for which the “cell death by LDH release (qualitative)” value with THP-1 cells [1] and with A549 cells [2] was “confer cytoprotection” in each case. The “ASC protein levels co-immunoprecipitated with TSPO (qualitative)” value with ASC was “decrease in protein levels”. Besides, the “reduction of cell death” value in the data set on Vero cells was “approximately 50%”. For the same molecule, the “PI cell death, ORF3a induced cytotoxicity (qualitative)” value in the data set with A549 cells [3] is listed as “significant decrease”.
Regarding `CCCCCCN(CCCCCC)C(=O)Cc1c(-c2ccc(F)cc2)[nH]c2ccccc12` [FGIN, FGIN 1-27], the “cell death by LDH release (qualitative)” value with THP-1 cells [1] and with A549 cells [2] was “confer cytoprotection” in each case. The “PI cell death (qualitative)” value in the data set with THP-1 cells [4] was “decrease”. Moreover, the “PI cell death, ORF3a induced cytotoxicity (qualitative)” value in the data set on A549 cells [3] is on record as “significant decrease”.
Consider `CCC(C)N(C)C(=O)c1cc2ccccc2c(-c2ccccc2Cl)n1` (stereo not shown) [PK11195], for which the “cell death by LDH release (qualitative)” value with THP-1 cells [1] and with A549 cells [2] was “confer cytoprotection” in each case. In addition, the “PI cell death (qualitative)” value with THP-1 cells [4] is “decrease”. In the data set with ASC, the “ASC protein levels co-immunoprecipitated with TSPO (qualitative)” value is reported as “decrease in protein levels”. Moreover, the “PI cell death, ORF3a induced cytotoxicity (qualitative)” value in the data set with A549 cells [3] is “significant decrease”.
For `CCN(Cc1ccccc1)C(=O)Cn1c(=O)n(C)c2cnc(-c3ccccc3)nc21` [XBD173], the “cell death by LDH release (qualitative)” value with THP-1 cells [1] and in the data set with A549 cells [2] was “confer cytoprotection” throughout. Further, the “PI cell death (qualitative)” value in the data set with THP-1 cells [4] is recorded as “decrease”. For the same molecule, in the data set on A549 cells [3], the “PI cell death, ORF3a induced cytotoxicity (qualitative)” value is recorded as “significant decrease”.

B1: TSPO (the 18 kDa translocator protein) (other)
chain: APPWVPAMGFTLAPSLGCFVGSRFVHGEGLRWYAGLQKPSWHPPHWVLGPVWGTLYSAMGYGSYLVWKELGGFTEKAVVPLGLYTGQLALNWAWPPIFFGARQMGWALVDLLLVSGAAAATTVAWYQVSPLAARLLYPYLAWLAFTTTLNYCVWRDNHGWRGGRRLPE
notes: also called peripheral benzodiazepine receptor
With B1, the binding result in data set [5] is on record as “no binding”.
